# Measurements as given in PMC11672299, “Conjugation of Polycationic Peptides Extends the Efficacy Spectrum of β‐Lactam Antibiotics” (Advanced Science, 2024).
# Where two headings read alike, the source gives them in different places.
# Key:
# B. subtilis DSM 10 = assay: microbe, parasite or virus in culture; type: cell-based
# Method in brief: (§1)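 Twofold serial dilutions in cation-adjusted MHB II were inoculated at 5 × 10^5 CFU mL^−1 and incubated 20 h at 37 ± 1 °C. The MIC was the lowest concentration preventing visible growth. Combinations used fixed clavulanic acid (2 mg L^−1) or avibactam (4 mg L^−1).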
# [1] = tested on: E. casseliflavus ATCC 700327; assay: microbe, parasite or virus in culture; type: cell-based
# Method in brief: as §1
# [2] = tested on: E. coli Tü20‐025 (clinical isolate); assay: microbe, parasite or virus in culture; type: cell-based
# Method in brief: as §1
# E. faecalis ATCC 29212 = assay: microbe, parasite or virus in culture; type: cell-based
# Method in brief: as §1
# [3] = tested on: K. pneumoniae Tü20‐036 (clinical isolate); assay: microbe, parasite or virus in culture; type: cell-based
# Method in brief: as §1
# [4] = tested on: S. aureus ATCC 25923 (MSSA); assay: microbe, parasite or virus in culture; type: cell-based
# Method in brief: as §1
# [5] = tested on: S. aureus NCTC 10442 (MRSA); assay: microbe, parasite or virus in culture; type: cell-based
# Method in brief: as §1
# [6] = tested on: S. saprophyticus ATCC 15305; assay: microbe, parasite or virus in culture; type: cell-based
# Method in brief: as §1
# [7] = tested on: CTZ‐resistant P. aeruginosa (n = 2); type: cell-based
# Description: The minimum inhibitory concentration (MIC) of the β‐lactam–peptide conjugates was determined by broth microdilution as previously described.^[ [17] ^] Briefly, in cation‐adjusted MHB II medium, a twofold serial dilution of the compounds was prepared in 96‐well round‐bottom polystyrene or polypropylene microtiter plates with each well containing 50 µL. The plates were inoculated with 50 µL bacterial suspension and the final inoculum, in a total volume of 100 µL, contained 5 × 10^5 CFU mL^−1. The microplates were incubated for 20 h at 37 ± 1 °C. The lowest concentration preventing visible bacterial growth was considered the MIC value. For susceptibility testing of combinations of β‐lactamase‐inhibitors with either a β‐lactam antibiotic or a β‐lactam–peptide conjugate, fixed concentrations of the inhibitors according to the EUCAST (European Committee on Antimicrobial Susceptibility Testing) guidelines (clavulanic acid = 2 mg L^−1, avibactam = 4 mg L^−1) were used.
# PBP1A/B = PBP1A/B (Bacillus subtilis, UniProt P39793); assay: Gel‐based PBP affinity assay (Bocillin FL competition); type: binding; conditions: B. subtilis membrane fractions, competition with Bocillin FL penicillin
# Chain of PBP1A/B (P39793 1-662): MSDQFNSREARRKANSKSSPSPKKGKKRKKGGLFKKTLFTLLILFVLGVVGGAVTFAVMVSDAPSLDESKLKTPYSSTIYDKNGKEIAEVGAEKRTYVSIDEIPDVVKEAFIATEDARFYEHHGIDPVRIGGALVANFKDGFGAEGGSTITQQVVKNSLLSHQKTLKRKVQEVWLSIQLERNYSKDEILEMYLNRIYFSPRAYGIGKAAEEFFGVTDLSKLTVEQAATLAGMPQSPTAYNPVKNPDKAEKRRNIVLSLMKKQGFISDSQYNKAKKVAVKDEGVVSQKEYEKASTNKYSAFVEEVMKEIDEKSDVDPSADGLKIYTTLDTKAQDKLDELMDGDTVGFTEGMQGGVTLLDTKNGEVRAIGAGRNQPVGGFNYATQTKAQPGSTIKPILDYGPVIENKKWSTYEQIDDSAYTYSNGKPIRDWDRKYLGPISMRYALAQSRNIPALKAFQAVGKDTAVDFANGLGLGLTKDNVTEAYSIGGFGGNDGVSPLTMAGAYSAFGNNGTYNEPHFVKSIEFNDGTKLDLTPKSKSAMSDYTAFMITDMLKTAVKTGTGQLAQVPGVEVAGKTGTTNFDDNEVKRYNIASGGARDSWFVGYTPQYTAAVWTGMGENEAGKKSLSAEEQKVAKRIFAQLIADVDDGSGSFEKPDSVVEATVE
# Description: (§2) B. subtilis DSM 10 and E. faecalis ATCC 51 299 (equal to DSM 12 956) membrane protein fractions were extracted according to the protocol of Dean et al. with minor modifications.^[ [34] ^] From a growing overnight bacterial culture, 3 L of LB (Luria‐Bertani) medium or TSB (tryptic soy broth) were inoculated with B. subtilis DSM 10 and E. faecalis ATCC 51 299, respectively, to obtain an OD600 = 0.3. The cultures were grown to an OD600 = 0.6–0.8 while shaking at 37 °C and cells were harvested by centrifugation at 4000 g for 30 min at 4 °C. The resulting pellet was washed twice with pre‐cooled PBS and resuspended in 30 mL of ice‐cooled PBS. The suspension was sonicated on ice (10 cycles of 30 s at 50% power for B. subtilis; 12 cycles of 30 s at 80% power for E. faecalis; 2 min intervals between cycles) using an Omni Ruptor 4000 ultrasonic homogenizer (Omni International, Kennesaw, GA, USA). Afterwards, the suspension was centrifuged at 7000 g for 10 min at 4 °C. The clear supernatant was transferred into a 50 mL polypropylene tube and centrifuged in a Beckman Coulter centrifuge equipped with a JA‐20 fixed‐angle rotor (Beckman Coulter, Krefeld, Germany) at 50 000 g for 1 h at 4 °C. The resulting pellet was washed with ice‐cold PBS and centrifuged a second time. The pellet was resuspended in 2 mL PBS and aliquots were stored at −80 °C. The protein content was determined using Bradford reagent (VWR International, Darmstadt, Germany) and Pierce BCA (bicinchoninic acid) protein assay kits (Thermo Fisher Scientific, Waltham, MA, USA) for membrane fractions of B. subtilis and E. faecalis, respectively.
# (§3) Each dilution was combined with B. subtilis (30 µg) or E. faecalis (15 µg) extracted membrane fractions. As reference samples, membrane fractions incubated with only PBS were prepared. Reaction mixtures were incubated for 20 min at 37 °C while shaking at 400 rpm. Next, Bocillin FL penicillin (Thermo Fisher Scientific, Waltham, MA, USA) was added to obtain a final concentration of 20 µM in the mixture. Samples were incubated for 30 min at 37 °C while shaking at 400 rpm. To denature the samples, 4× Laemmli sample buffer (Bio‐Rad Laboratories, Feldkirchen, Germany) was added, and the samples incubated for 10 min at 70 °C. Afterwards, the samples were centrifuged for 5 min at 13 000 rpm. Samples were separated by SDS‐PAGE using a 10% Tris‐glycine gel for 100 min at 180 V. The bands were visualized using a Typhoon FLA 9500 imager (GE Healthcare, Chicago, IL, USA) with excitation at 473 nm. The gel images were analyzed using ImageJ software. Brightness and contrast were adjusted to improve the signal‐to‐noise ratio and the background signal was subtracted over the whole image. Next, integrated density values of the gel bands were measured and Bocillin FL penicillin labeling of each PBP in antibiotic‐treated samples were set in proportion to the reference sample. IC50 values were calculated with GraphPad Prism software (version 8.0.1) using inhibitor versus normalized response variable slope and least‐squares fit. […] The mean was calculated using the IC50 values of at least two independent assays for each antibiotic.
# PBP2B = biological target: T1, PBP2B (Bacillus subtilis, UniProt Q07868); assay: as above; type: binding; conditions: B. subtilis membrane fractions, competition with Bocillin FL penicillin
# T1 construct: endogenous in cells; host or cells: B. subtilis DSM 10, extracted membrane protein fraction
# T1 sequence (Q07868 whole entry): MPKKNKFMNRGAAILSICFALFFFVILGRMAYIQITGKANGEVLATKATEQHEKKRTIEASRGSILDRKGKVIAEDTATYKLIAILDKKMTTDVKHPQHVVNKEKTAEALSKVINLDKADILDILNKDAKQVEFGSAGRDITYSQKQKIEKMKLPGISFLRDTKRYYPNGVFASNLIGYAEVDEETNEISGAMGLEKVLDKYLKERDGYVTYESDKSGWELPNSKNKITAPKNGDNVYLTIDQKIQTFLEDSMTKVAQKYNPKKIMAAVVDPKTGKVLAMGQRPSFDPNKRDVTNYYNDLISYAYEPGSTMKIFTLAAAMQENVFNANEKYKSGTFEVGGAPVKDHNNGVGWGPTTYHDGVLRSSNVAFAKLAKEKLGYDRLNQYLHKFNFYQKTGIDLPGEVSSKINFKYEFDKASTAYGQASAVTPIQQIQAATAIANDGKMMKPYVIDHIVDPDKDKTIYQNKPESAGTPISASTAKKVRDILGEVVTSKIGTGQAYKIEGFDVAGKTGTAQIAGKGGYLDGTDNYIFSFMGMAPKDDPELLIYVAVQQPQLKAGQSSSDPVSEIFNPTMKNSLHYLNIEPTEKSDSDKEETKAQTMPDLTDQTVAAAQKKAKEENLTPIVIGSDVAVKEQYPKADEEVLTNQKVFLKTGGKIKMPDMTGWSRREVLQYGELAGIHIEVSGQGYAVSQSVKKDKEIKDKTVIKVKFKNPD
# Description: as §2, §3
# PBP4 = biological target: T2, PBP4 (Bacillus subtilis, UniProt P40750); assay: as above; type: binding; conditions: B. subtilis membrane fractions, competition with Bocillin FL penicillin
# T2 construct: endogenous in cells; host or cells: B. subtilis DSM 10, extracted membrane protein fraction
# T2 sequence (P40750 22-624): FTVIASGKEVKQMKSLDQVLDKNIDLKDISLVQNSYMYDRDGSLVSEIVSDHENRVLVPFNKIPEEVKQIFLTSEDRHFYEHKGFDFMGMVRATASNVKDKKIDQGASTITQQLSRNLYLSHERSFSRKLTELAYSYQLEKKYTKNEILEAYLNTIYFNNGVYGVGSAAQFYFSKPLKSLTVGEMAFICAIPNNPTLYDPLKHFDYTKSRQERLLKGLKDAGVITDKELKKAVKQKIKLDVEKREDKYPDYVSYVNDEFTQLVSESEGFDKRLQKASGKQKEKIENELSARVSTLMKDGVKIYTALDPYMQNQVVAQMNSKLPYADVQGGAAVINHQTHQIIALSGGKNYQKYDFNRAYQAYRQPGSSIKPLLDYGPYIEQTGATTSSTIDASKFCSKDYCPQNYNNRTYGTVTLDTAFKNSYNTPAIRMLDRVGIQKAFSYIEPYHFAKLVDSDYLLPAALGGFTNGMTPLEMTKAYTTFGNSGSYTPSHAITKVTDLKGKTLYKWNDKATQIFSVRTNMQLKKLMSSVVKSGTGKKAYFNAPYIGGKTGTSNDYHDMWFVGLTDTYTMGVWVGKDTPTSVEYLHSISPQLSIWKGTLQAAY
# Description: as §2, §3
smiles,measurement,setting,value
"CC(C)(O/N=C(\C(=O)N[C@@H]1C(=O)N2C(C(=O)[O-])=C(C[n+]3ccccc3)CS[C@H]12)c1csc(N)n1)C(=O)O [CTZ, ceftazidime, reference compound]",MIC,"B. subtilis DSM 10; Bacillus subtilis, DSM10, B. subtilis DSM 10, median (n = 3), read-out: MIC",8 µg/mL
same,MIC,"[1]; Enterococcus casseliflavus, ATCC700327, E. casseliflavus ATCC 700327, median (n = 3), read-out: MIC",> 2050 µg/mL
same,MIC,"[2]; Escherichia coli, E. coli Tü20‐025, median (n = 3), read-out: MIC",2 µg/mL
same,MIC,"E. faecalis ATCC 29212; Enterococcus faecalis, ATCC29212, E. faecalis ATCC 29212, median (n = 3), read-out: MIC",4 µg/mL
same,MIC,[3]; Klebsiella pneumoniae,0.125 µg/mL
same,MIC,"[4]; Staphylococcus aureus, S. aureus ATCC 25923 (MSSA), median (n = 3), read-out: MIC",16 µg/mL
same,MIC,"[5]; Staphylococcus aureus, S. aureus NCTC 10442 (MRSA), median (n = 3), read-out: MIC",16 µg/mL
same,MIC,"[6]; Staphylococcus saprophyticus, ATCC15305, S. saprophyticus ATCC 15305, median (n = 3), read-out: MIC",32 µg/mL
same,MIC range,[7]; CTZ‐resistant P. aeruginosa (n = 2),32 to 64 µg/mL
same,binding to PBP1A/B,PBP1A/B,strong binding
same,binding to PBP2B,PBP2B,strong binding
same,binding to PBP4,PBP4,strong binding
CC(C)(O/N=C(\C(=O)N[C@@H]1C(=O)N2C(C(=O)[O-])=C(C[n+]3ccccc3)CS[C@H]12)c1csc(N)n1)C(=O)NCCCCCCN1C(=O)CC(SC[C@H](NC(=O)[C@H](CCCNC(=N)N)NC(=O)[C@H](CCCNC(=N)N)NC(=O)[C@H](CCCNC(=N)N)NC(=O)[C@H](CCCNC(=N)N)NC(=O)[C@H](CCCNC(=N)N)NC(=O)[C@@H](N)CCCNC(=N)N)C(N)=O)C1=O (stereo partly drawn) [CTZ-R6],MIC,"B. subtilis DSM 10; DSM 10, 20 h",0.008 µg/mL
same,MIC,"[1]; ATCC 700327, 20 h",0.25 µg/mL
same,MIC,"[2]; Tü20‐025 (clinical isolate, 20 h)",0.5 µg/mL
same,MIC,"E. faecalis ATCC 29212; ATCC 29212, 20 h",<0.004 µg/mL
same,MIC,"[3]; Tü20‐036 (clinical isolate, 20 h)",0.0625 µg/mL
same,MIC,"[4]; ATCC 25923, 20 h",4 µg/mL
same,MIC,"[5]; NCTC 10442, 20 h",2 µg/mL
same,MIC,"[6]; ATCC 15305, 20 h",0.02 µg/mL
same,MIC range,"[7]; CTZ‐resistant (n = 2, 20 h)",2 to 16 µg/mL
same,binding to PBP1A/B,PBP1A/B,decreased in comparison to CTZ
same,binding to PBP2B,PBP2B,showed affinity
same,binding to PBP4,PBP4,decreased in comparison to CTZ
